{"source": "paper PMC2693004", "about": "(Bioorganic & medicinal chemistry letters, 2009)", "origin": "cited, not measured here", "molecular_target": "T1, recombinant human MAO-A (Homo sapiens, UniProt P21397)", "T1 sequence (P21397 1-527)": "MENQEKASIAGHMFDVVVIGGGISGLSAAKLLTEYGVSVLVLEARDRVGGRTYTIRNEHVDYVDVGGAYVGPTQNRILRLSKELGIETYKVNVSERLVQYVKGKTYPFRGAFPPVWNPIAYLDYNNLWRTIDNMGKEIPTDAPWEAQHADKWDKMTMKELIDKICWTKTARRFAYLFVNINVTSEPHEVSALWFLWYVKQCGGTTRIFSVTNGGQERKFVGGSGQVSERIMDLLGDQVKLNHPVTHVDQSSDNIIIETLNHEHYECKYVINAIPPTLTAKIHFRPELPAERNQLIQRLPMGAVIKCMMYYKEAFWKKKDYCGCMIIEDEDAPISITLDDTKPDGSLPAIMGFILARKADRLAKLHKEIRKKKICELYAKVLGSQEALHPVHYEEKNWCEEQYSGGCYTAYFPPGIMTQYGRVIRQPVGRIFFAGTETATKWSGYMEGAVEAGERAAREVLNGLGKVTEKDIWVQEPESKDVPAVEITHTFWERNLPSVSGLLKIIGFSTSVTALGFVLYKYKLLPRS", "note": "“Also recorded” adds a separate entry of the source.", "data": [{"smiles": "C(=CCc1ccccc1)Cc1ccccc1", "note": "[1,4-diphenyl-2-butene]", "values": [{"measurement": "binding to MAO-A", "value": "do not to bind"}]}, {"smiles": "Cn1c(=O)c2c(nc(/C=C/c3cccc(Cl)c3)n2C)n(C)c1=O", "note": "[CSC, (E)-8-(3-chlorostyryl)caffeine]", "values": [{"measurement": "binding to MAO-A", "value": "does not bind; also recorded: do not to bind"}]}]}
